Measurements taken from US20240101564A1, “SALTS OF A PI3Kdelta INHIBITOR, CRYSTALLINE FORMS, METHODS OF PREPARATION, AND USES THEREFORE” (BeiGene Switzerland GmbH, priority 2021, published 2024).

Legend:
PI3Kδ = PI3Kδ (Homo sapiens, UniProt O00329); experiment: PI3Kδ inhibition in biochemical and cellular assays
cancer cell lines = experiment: cellular growth of cancer cell lines in vitro; type: cell-based; conditions: several cancer cell lines in vitro
tumor xenografts = tumor xenografts engrafted subcutaneously or systemically in mice; type: in vivo; conditions: xenografts subcutaneous or systemic in mice
[1] = pharmacokinetic properties of different salts in Sprague-Dawley rats after oral administration; type: in vivo; conditions: male SD rats, single oral 10 mg·kg^−1 (as free base), 0.5% MC, fasted
Experimental: The oral dosing solution was prepared as follows: […] of a test compound was weighed and dispersed in 10 mL of 0.5% methyl cellulose (MC). The final concentration of the test compound is 1 mg·mL^−1 (Calculated by free freebase).
Male Sprague-Dawley rats (also summarized in Table 27) were housed in solid bottom polypropylene cages with sterilized bedding and receive sterilized diet and sterilized water. The room was controlled and monitored for humidity (targeted mean range 40% to 70%) and temperature (targeted mean range 18° C. to 26° C.) with 10 to 20 air changes/hour. The light cycle was maintained at 12-h light and 12-h dark. Only animals that appeared to be healthy were selected for this study based on overall health, body weight, or other relevant information.
The male Sprague-Dawley rats were fasted overnight with free access to drinking water prior to treatment. On day 1, the animals were weighed and actual dose volume for each animal was calculated using the formula below: […]
Three rats for each group were given a single oral dose of 10 mg·kg^−1. The dosing solutions were freshly prepared prior to dose administration. The actual body weights and actual volume injected were recorded accordingly. Four hours after dosing, the rats were allowed to intake food.
Blood samples (˜150 μL) were collected at different times from the jugular vein catheter into EDTA-K2 coated tubes. Whole blood was processed by centrifugation at 3000 g for 10 min. Plasma samples were collected and kept at −80° C. freezer prior to analysis. The blood sampling time was recorded accordingly.
The dose samples of PO were diluted with MeOH:H2O (4:1, v/v) to achieve the concentration of 2 μg·mL^−1, respectively. Then, 2.5 μL of the diluted samples were added with 47.5 μL blank plasma, and then were handled as the plasma sample procedure. An aliquot of 10 μL of the mixture was injected into the LC-MS/MS system.

[2] = DVS (water sorption) test of fumarate crystal forms; type: physicochemical; conditions: for water uptake in DVS: humidity increased
Experimental: DVS testing on fumarate Type A was performed starting from 25° C./70% RH.
DVS test on Type D was started at 25° C./60% RH to avoid any unnecessary form change for the starting form. […] Thus, fumarate Type D was speculated to be stable lower than 60% RH.
DVS testing on fumarate Type F was started at 25° C./80% RH to avoid any unnecessary form change for the starting form.

[3] = solid-state stability tests (HPLC and XRPD after storage for one week); type: physicochemical; conditions: for HPLC (area %), One week / XRPD form after storage (form change) / difference of HPLC purity after storage: 25° C./60% RH and 40° C./75% RH, one week
Experimental: Fumarate Type D and Type F were further evaluated by solid-state stability tests under 25° C./60% RH and 40° C./75% RH for one week.
In the experiments, about 15 mg of solids was added into an HPLC vial, which was then sealed with parafilm and pricked with 10 holes. Place the vial under corresponding condition and test the solids by HPLC and XRPD after one week.

[4] = long-term stability, 3-month experiment; type: physicochemical

Sequence of PI3Kδ (O00329 whole entry, species assumed): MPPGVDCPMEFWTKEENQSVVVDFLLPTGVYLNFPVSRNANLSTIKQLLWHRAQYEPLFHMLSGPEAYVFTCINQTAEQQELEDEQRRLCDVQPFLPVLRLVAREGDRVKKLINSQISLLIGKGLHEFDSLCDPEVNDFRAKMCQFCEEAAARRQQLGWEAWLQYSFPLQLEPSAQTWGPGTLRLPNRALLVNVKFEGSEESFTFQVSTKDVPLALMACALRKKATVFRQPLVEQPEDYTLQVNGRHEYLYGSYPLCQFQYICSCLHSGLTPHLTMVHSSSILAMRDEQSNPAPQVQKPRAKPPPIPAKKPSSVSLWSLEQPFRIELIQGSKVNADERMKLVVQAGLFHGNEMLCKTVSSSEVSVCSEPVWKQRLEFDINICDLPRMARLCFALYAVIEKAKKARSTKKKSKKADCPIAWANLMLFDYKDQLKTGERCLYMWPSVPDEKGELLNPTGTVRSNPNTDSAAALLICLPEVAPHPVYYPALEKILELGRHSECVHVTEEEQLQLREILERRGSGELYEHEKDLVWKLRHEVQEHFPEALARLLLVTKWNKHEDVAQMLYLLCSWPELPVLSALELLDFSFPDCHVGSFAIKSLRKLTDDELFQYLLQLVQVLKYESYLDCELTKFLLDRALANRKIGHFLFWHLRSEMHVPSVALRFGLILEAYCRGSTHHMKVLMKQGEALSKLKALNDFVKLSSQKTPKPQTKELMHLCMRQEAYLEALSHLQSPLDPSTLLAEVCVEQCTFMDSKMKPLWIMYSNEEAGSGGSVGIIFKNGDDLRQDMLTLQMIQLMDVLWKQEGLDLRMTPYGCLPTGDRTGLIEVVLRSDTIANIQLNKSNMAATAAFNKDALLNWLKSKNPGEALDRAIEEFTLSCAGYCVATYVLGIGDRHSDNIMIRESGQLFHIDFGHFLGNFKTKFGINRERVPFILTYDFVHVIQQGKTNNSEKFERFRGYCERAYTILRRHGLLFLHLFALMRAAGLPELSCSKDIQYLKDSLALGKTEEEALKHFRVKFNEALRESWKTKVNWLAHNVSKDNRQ
Sequence of PI3Kδ (P27986 whole entry partner, species assumed): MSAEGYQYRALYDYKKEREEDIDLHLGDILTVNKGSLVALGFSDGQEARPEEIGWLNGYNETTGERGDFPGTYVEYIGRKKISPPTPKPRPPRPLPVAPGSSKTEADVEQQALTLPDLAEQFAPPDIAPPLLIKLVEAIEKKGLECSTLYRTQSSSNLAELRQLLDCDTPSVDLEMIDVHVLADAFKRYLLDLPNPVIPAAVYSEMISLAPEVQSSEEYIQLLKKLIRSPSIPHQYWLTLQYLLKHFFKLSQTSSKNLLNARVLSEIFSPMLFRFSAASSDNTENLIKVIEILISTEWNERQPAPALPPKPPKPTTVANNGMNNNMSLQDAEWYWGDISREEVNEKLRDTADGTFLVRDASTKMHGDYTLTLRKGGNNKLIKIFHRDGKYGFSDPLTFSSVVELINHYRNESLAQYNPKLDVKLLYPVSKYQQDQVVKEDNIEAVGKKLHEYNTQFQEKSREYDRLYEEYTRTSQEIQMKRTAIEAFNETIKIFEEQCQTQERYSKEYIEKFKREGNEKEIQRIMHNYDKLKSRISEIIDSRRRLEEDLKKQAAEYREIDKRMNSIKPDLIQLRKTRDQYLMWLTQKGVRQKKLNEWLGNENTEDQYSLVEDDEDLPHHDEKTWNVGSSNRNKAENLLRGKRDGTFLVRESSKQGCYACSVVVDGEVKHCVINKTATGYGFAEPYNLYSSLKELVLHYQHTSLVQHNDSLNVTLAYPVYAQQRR

| AUC0-inf [1] [ng·h/mL] | AUC0-t [1] [ng·h/mL] | Cmax [1] [ng/mL] | F % (n = 3) [1] [%] | Kel [1] [h⁻¹] | t1/2 [1] [h] | tmax [1] [h] | HPLC (area %), One week [3] [area %] | XRPD form after storage (form change) [3] | difference of HPLC purity after storage [3] | HPLC Area (%), RRT 1.00 ([3]; 25° C./60% RH for 1 week) [%] | HPLC Area (%), RRT 1.08 ([3]; 25° C./60% RH for 1 week) [%] | HPLC Area (%), RRT 1.13 ([3]; 25° C./60% RH for 1 week) [%] | HPLC Area (%), RRT 1.00 ([3]; 40° C./75% RH for 1 week) [%] | HPLC Area (%), RRT 1.08 ([3]; 40° C./75% RH for 1 week) [%] | HPLC Area (%), RRT 1.13 ([3]; 40° C./75% RH for 1 week) [%] | HPLC (area %), Initial ([3]; Initial) [area %] | HPLC Area (%), RRT 1.00 ([3]; Initial) [%] | HPLC Area (%), RRT 1.13 ([3]; Initial) [%] | Structure (SMILES) | further results |
| --- | --- | --- | --- | --- | --- | --- | --- | --- | --- | --- | --- | --- | --- | --- | --- | --- | --- | --- | --- | --- |
|  |  |  |  |  |  |  |  |  |  |  |  |  |  |  |  |  |  |  | Cc1nc([C@@H](C)c2cc(Cl)c(F)c(C(=O)NCCN3CCN(C)CC3)c2OC(C)C)n2ccnc(N)c12 [Compound A, (S)-3-(1-(8-amino-1-methylimidazo[1,5-a]pyrazin-3-yl)ethyl)-5-chloro-6-fluoro-2-isopropoxy-N-(2-(4-methylpiperazin-1-yl)ethyl)benzamide] | inhibition of PI3Kδ (PI3Kδ): potent and selective inhibitor; inhibition of cellular growth (cancer cell lines): inhibits cellular growth; antitumor effects (tumor xenografts): dose-dependent antitumor effects |
| 147.7 | 54.9 | 14.8 | 3.4 | 0.06 | 12 | 2.7 |  |  |  |  |  |  |  |  |  |  |  |  | Cc1nc([C@@H](C)c2cc(Cl)c(F)c(C(=O)NCCN3CCN(C)CC3)c2OC(C)C)n2ccnc(N)c12.Cc1nc([C@@H](C)c2cc(Cl)c(F)c(C(=O)NCCN3CCN(C)CC3)c2OC(C)C)n2ccnc(N)c12.O=C(O)C(O)C(O)C(=O)O.O=C(O)C(O)C(O)C(=O)O.O=C(O)C(O)C(O)C(=O)O [D-Tartarate (acid/base = 1.5:1)] |  |
|  |  |  |  |  |  |  |  |  |  |  |  |  |  |  |  |  |  |  | Cc1nc([C@@H](C)c2cc(Cl)c(F)c(C(=O)NCCN3CCN(C)CC3)c2OC(C)C)n2ccnc(N)c12.O=C(O)/C=C/C(=O)O [Fumarate Type A] | water uptake in DVS ([2]; started from 25° C./70% RH): ~21% |
| 356 | 210 | 48.3 | 13.6 | 0.0687 | 11 | 2.45 | 99.9 | Type D | no obvious difference of HPLC purity | 99.92 | 0.02 | 0.06 | 99.90 | 0.03 | 0.07 | 99.9 | 99.92 | 0.05 | Cc1nc([C@@H](C)c2cc(Cl)c(F)c(C(=O)NCCN3CCN(C)CC3)c2OC(C)C)n2ccnc(N)c12.O=C(O)/C=C/C(=O)O [Fumarate Type D] | humidity below which the form is speculated to be stable ([2]; from DVS, 25° C.): lower than 60 % RH; mass change in DVS ([2]; started at 25° C./60% RH, 60% to 0% RH, then 0% to 70% RH): ~1.6%; XRPD form after storage (form change) ([3]; listed as fumarate Type D): no form change; HPLC Area (%), RRT 1.08 ([3]; Initial): 0.03%; long-term stability [4]: excellent long-term stability |
|  |  |  |  |  |  |  | 99.9 | Type F | no obvious difference of HPLC purity | 99.88 | 0.02 | 0.05 | 99.91 | 0.03 | 0.06 | 99.9 | 99.95 | 0.05 | Cc1nc([C@@H](C)c2cc(Cl)c(F)c(C(=O)NCCN3CCN(C)CC3)c2OC(C)C)n2ccnc(N)c12.O=C(O)/C=C/C(=O)O [Fumarate Type F] | water uptake in DVS ([2]; started at 25° C./80% RH): ~17%; XRPD form after storage (form change) ([3]; listed as fumarate Type F): no form change; HPLC Area (%), RRT 1.06 ([3]; 25° C./60% RH for 1 week): 0.05% |
